# Key:
# Test in all cases: relative viability (nuclei count vs DMSO), 5 days (fraction); higher = more cells survive
# [1] = compound: Cc1ccc(C(=O)Nc2cccc(C(F)(F)F)c2)cc1Nc1cncc(C(N)=O)c1 [ALW-II-49-7] + O=C(c1cc(Cc2n[nH]c(=O)c3ccccc23)ccc1F)N1CCN(C(=O)C2CC2)CC1 [Olaparib] (partner 8 µM)
# Procedure, shortened: (§1)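 Relative viability is defined as nuclei in treated wells over nuclei in vehicle wells. Duplicate plates were run and medians reported. Lung cancer cell lines in 1536-well plates were dosed by pin tool one day after seeding, with one drug or with a fixed anchor-drug dose plus five library-drug doses (not always all listed) in √10 steps, and nuclei were counted after 5 days.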
# [2] = compound: C1CC1C(=O)NC2=NNC3=C2C=CC(=C3)C4=CC(=CC=C4)C(=O)NC5CC5 [XMD13-2] + C[C@]1(O)C[C@@H](c2nc(-c3ccc4ccc(-c5ccccc5)nc4c3)c3c(N)nccn32)C1 [Linsitinib] (partner 1 µM)
# Procedure, shortened: as §1
# [3] = compound: Cc1ccc(C(=O)Nc2cccc(C(F)(F)F)c2)cc1Nc1cncc(C(N)=O)c1 [ALW-II-49-7] + O=C(CCCCCCC(=O)Nc1ccccc1)NO [Vorinostat] (partner 1 µM)
# Procedure, shortened: as §1
# [4] = compound: Cc1ccc(C(=O)Nc2cccc(C(F)(F)F)c2)cc1Nc1cncc(C(N)=O)c1 [ALW-II-49-7] + C[C@]1(O)C[C@@H](c2nc(-c3ccc4ccc(-c5ccccc5)nc4c3)c3c(N)nccn32)C1 [Linsitinib] (partner 1 µM)
# Procedure, shortened: as §1
Cell Line,relative viability ([1]; first compound 0.08 µM),relative viability ([1]; first compound 0.253 µM),relative viability ([1]; first compound 0.8 µM),relative viability ([1]; first compound 2.53 µM),relative viability ([1]; first compound 8 µM),relative viability ([2]; first compound 0.05 µM),relative viability ([2]; first compound 0.1581 µM),relative viability ([2]; first compound 0.5 µM),relative viability ([2]; first compound 1.581 µM),relative viability ([2]; first compound 5 µM),relative viability ([3]; first compound 0.08 µM),relative viability ([3]; first compound 0.253 µM),relative viability ([3]; first compound 0.8 µM),relative viability ([3]; first compound 2.53 µM),relative viability ([3]; first compound 8 µM),relative viability ([4]; first compound 0.08 µM),relative viability ([4]; first compound 0.253 µM),relative viability ([4]; first compound 0.8 µM),relative viability ([4]; first compound 2.53 µM),relative viability ([4]; first compound 8 µM)
IA-LM,0.823,0.718,0.726,0.628,0.355,0.627,0.56,0.582,0.683,0.713,0.998,0.613,0.745,0.29,0.423,0.627,0.342,0.378,0.449,0.135
LC-2-ad,0.736,0.793,0.682,0.721,0.343,0.927,0.924,0.826,0.769,0.831,0.681,0.763,0.691,0.698,0.528,0.834,0.86,0.764,0.86,0.836
LCLC-97TM1,0.429,0.442,0.399,0.279,0.353,0.206,0.157,0.187,0.176,0.178,0.96,0.683,0.642,0.685,0.49,0.19,0.171,0.174,0.176,0.155
LCLC-103H,0.724,0.79,0.771,0.714,0.762,1,1.1,1.25,1.18,1.14,0.79,0.763,0.658,0.71,0.618,0.994,1.15,1.16,1.15,1.05
LK-2,0.803,0.682,0.576,,0.817,0.715,0.518,0.554,0.676,0.422,0.327,0.315,0.225,,0.247,0.546,0.722,0.399,,0.654
LOU-NH91,0.846,0.946,0.923,,0.805,0.985,0.981,0.966,0.876,1.1,0.884,0.888,1,,0.805,0.928,0.97,0.93,0.528,0.977
LU99A,,0.292,0.249,0.254,0.288,0.609,0.552,0.591,0.445,0.463,,0.525,0.507,0.5,0.619,0.569,0.464,0.573,0.421,0.589
LXF-289,1.02,0.909,1.09,1.26,1.09,0.941,0.942,0.967,0.984,0.986,0.726,0.877,0.81,0.854,0.762,0.935,0.958,1.04,1.1,1.09
NCI-H23,0.328,0.363,0.383,0.294,0.298,0.558,0.579,0.624,0.537,0.58,0.634,0.692,0.339,0.575,0.46,0.56,0.55,0.68,0.591,0.618
NCI-H322M,0.288,0.742,0.638,0.732,0.716,0.963,0.864,1.07,0.891,0.891,0.789,0.93,0.861,0.93,0.773,0.846,0.902,0.909,0.836,0.673
NCI-H358,0.431,0.545,0.644,0.452,0.387,0.759,0.764,0.826,0.663,0.449,1,0.694,0.805,0.574,0.447,0.801,0.661,0.816,0.725,0.742
NCI-H441,0.592,0.52,0.592,0.47,0.383,0.771,0.415,0.558,0.64,0.398,0.669,0.788,0.901,0.549,0.538,0.529,0.61,0.432,0.496,0.508
NCI-H460,0.435,0.704,0.414,0.143,0.325,1.01,0.953,0.973,0.72,0.997,0.763,0.857,0.69,0.497,0.498,0.464,0.667,0.766,0.566,0.566
NCI-H520,0.306,0.339,0.33,0.31,0.328,1.09,0.975,1.01,0.881,0.492,0.782,0.649,0.681,0.696,0.617,0.779,1.04,,1.16,0.951
NCI-H596,0.523,0.616,0.774,0.599,0.757,1.12,1.13,1.01,1.05,1.22,0.488,0.574,0.586,0.683,0.456,1.1,1.08,1.11,1.06,1.1
NCI-H647,0.619,0.386,0.636,0.51,0.367,1.33,1.22,1.15,1.17,1.09,0.539,0.642,0.599,0.321,0.349,1.1,1.35,1.03,1.04,1.05

Cell Line,relative viability ([1]; first compound 0.08 µM),relative viability ([1]; first compound 0.253 µM),relative viability ([1]; first compound 0.8 µM),relative viability ([1]; first compound 2.53 µM),relative viability ([1]; first compound 8 µM),relative viability ([2]; first compound 0.05 µM),relative viability ([2]; first compound 0.1581 µM),relative viability ([2]; first compound 0.5 µM),relative viability ([2]; first compound 1.581 µM),relative viability ([2]; first compound 5 µM),relative viability ([3]; first compound 0.08 µM),relative viability ([3]; first compound 0.253 µM),relative viability ([3]; first compound 0.8 µM),relative viability ([3]; first compound 2.53 µM),relative viability ([3]; first compound 8 µM),relative viability ([4]; first compound 0.08 µM),relative viability ([4]; first compound 0.253 µM),relative viability ([4]; first compound 0.8 µM),relative viability ([4]; first compound 2.53 µM),relative viability ([4]; first compound 8 µM)
NCI-H650,0.42,0.388,0.416,0.351,0.304,0.983,0.857,0.899,0.718,0.865,0.351,0.461,0.579,0.42,0.374,0.836,0.793,0.941,0.811,0.54
NCI-H661,0.736,0.85,0.762,0.801,0.733,0.67,0.708,0.58,0.555,0.398,0.854,0.859,0.823,0.795,0.79,0.631,0.534,0.493,,0.536
NCI-H727,0.663,0.843,0.603,0.501,0.597,0.219,0.25,0.439,0.312,0.25,1.16,1.33,1.02,1.14,1.12,0.303,0.331,0.316,0.283,0.37
NCI-H838,0.715,0.744,0.881,0.844,0.7,1.14,1.03,1.05,1.06,0.985,0.778,0.748,0.693,0.759,0.769,1.06,1.08,1.06,1.14,1.15
NCI-H1355,0.68,0.822,0.846,0.655,0.651,0.973,0.834,0.851,0.825,0.894,0.63,0.618,0.615,0.591,0.597,0.731,0.872,0.797,0.752,0.758
NCI-H1395,0.473,0.449,0.435,,0.459,1.06,0.984,1,1.11,1.28,0.649,0.699,0.733,,0.569,1.09,1.22,1.11,0.305,1.08
NCI-H1437,0.611,0.631,0.658,0.647,0.601,1.25,1.09,1.08,1.04,1.06,0.831,0.926,0.822,0.756,0.699,0.935,1.04,,0.942,0.754
NCI-H1651,0.15,0.176,0.176,0.169,0.171,0.964,0.961,1.05,1.07,1.01,0.576,0.665,0.579,0.54,0.555,0.928,1.02,0.973,0.884,0.996
NCI-H1666,0.692,0.798,0.684,0.738,0.728,0.869,0.804,0.741,0.818,0.86,0.903,1.07,1.11,0.971,1,0.81,0.794,0.81,0.842,0.781
NCI-H1734,0.57,0.628,0.596,0.46,0.558,0.893,0.996,0.938,0.784,0.743,0.763,0.8,0.78,0.795,0.727,0.927,0.911,0.872,0.815,0.828
NCI-H1755,0.888,0.942,0.913,0.798,0.627,1.04,0.942,1.06,0.963,1.02,0.88,0.83,0.783,0.685,0.608,1.05,1.14,1.01,0.978,0.855
NCI-H1793,0.977,0.834,0.785,0.911,0.753,0.882,0.811,0.852,0.713,0.999,0.816,0.811,0.616,0.798,0.431,0.864,0.723,0.84,0.868,0.863
NCI-H1915,0.243,0.275,0.224,0.211,0.398,1.15,1.13,1.07,1.1,1.09,0.585,0.483,0.498,0.348,0.256,1.13,1.13,1.09,1,0.825
NCI-H1944,0.451,0.391,0.381,0.375,0.374,1.24,1.18,1.26,1.29,1.34,0.659,0.613,0.497,0.478,0.377,1.18,1.26,1.3,1.29,1.2
NCI-H1975,0.739,0.845,0.793,0.682,0.683,1.08,0.926,0.968,0.972,1.07,0.713,0.686,0.643,0.66,0.542,1.01,1,0.892,0.863,0.956
NCI-H1993,1.01,1.02,0.928,1.06,1.32,0.807,0.78,0.731,0.743,0.694,0.843,0.72,0.837,0.828,0.796,0.753,0.691,0.737,0.792,0.878

# From the supplement of paper PMC10307832
